≈ marks a conversion by molar mass, not a printed value.
Assays:
C. difficile 9689 = assay: MIC by agar dilution against Clostridioides difficile, test strain 13; type: cell-based; settings: test strain 13, C. difficile 9689, anaerobic, agar dilution, read-out: MIC
C. difficile 152 = assay: MIC by agar dilution against Clostridioides difficile, test strain 14; type: cell-based; settings: test strain 14, C. difficile 152, anaerobic, agar dilution, read-out: MIC
C. difficile 159 = assay: MIC by agar dilution against Clostridioides difficile, test strain 15; type: cell-based; settings: test strain 15, C. difficile 159, anaerobic, agar dilution, read-out: MIC
C. difficile 161 = assay: MIC by agar dilution against Clostridioides difficile, test strain 16; type: cell-based; settings: test strain 16, C. difficile 161, anaerobic, agar dilution, read-out: MIC
C. difficile 173 = assay: MIC by agar dilution against Clostridioides difficile, test strain 17; type: cell-based; settings: test strain 17, C. difficile 173, anaerobic, agar dilution, read-out: MIC
C. difficile 174 = assay: MIC by agar dilution against Clostridioides difficile, test strain 18; type: cell-based; settings: test strain 18, C. difficile 174, anaerobic, agar dilution, read-out: MIC
C. difficile 181 = assay: MIC by agar dilution against Clostridioides difficile, test strain 19; type: cell-based; settings: test strain 19, C. difficile 181, anaerobic, agar dilution, read-out: MIC
S. aureus^MS [1] = assay: MIC by broth microdilution (aerobic pathogens), test strain 1; type: cell-based; settings: Staphylococcus aureus; test strain 1, S. aureus^MS; read-out: MIC
Protocol: (§1) The antibacterial activity of the compounds of Examples 1 to 48 of the present invention against aerobic pathogens were evaluated by measuring the minimum concentration of the antibiotic capable of inhibiting bacterial growth by 90% compared to the growth of the non-drug treated control group. MIC was measured by the broth microdilution method based on CLSI standards [Reference: Clinical and Laboratory Standards Institute Document. (2000) Methods for Dilution Antimicrobial Susceptibility Test for Bacteria that Grow Aerobically-Fifth Edition: M7-A5. CLSI, Villanova, PA].
(§2) All 13 strains such as methicillin susceptible Staphylococcus aureus (MSSA), methicillin resistant Staphylococcus aureus (MRSA), Vancomycin resistant Staphylococcus aureus (VRSA), Staphylococcus epidermidis, methicillin resistant Staphylococcus epidermidis, Enterococcus faecalis, Vancomycin resistant Enterococcus faecalis, Enterococcus faecium, Vancomycin resistant Enterococcus faecium were used.

S. aureus^MS [2] = assay: MIC by broth microdilution (aerobic pathogens), test strain 2; type: cell-based; settings: Staphylococcus aureus; test strain 2, S. aureus^MS; read-out: MIC
Protocol: as §1, §2

S. aureus^MR = assay: MIC by broth microdilution (aerobic pathogens), test strain 3; type: cell-based, Methicillin resistant Staphylococcus aureus; settings: Staphylococcus aureus; test strain 3, S. aureus^MR (methicillin resistant); read-out: MIC
Protocol: as §1, §2

S. aureus^VR = assay: MIC by broth microdilution (aerobic pathogens), test strain 4; type: cell-based, Vancomycin resistant Staphylococcus aureus; settings: Staphylococcus aureus; test strain 4, S. aureus^VR (vancomycin resistant); read-out: MIC
Protocol: as §1, §2

S. epidermis = assay: MIC by broth microdilution (aerobic pathogens), test strain 5; type: cell-based; settings: Staphylococcus epidermidis; test strain 5, S. epidermis; read-out: MIC
Protocol: as §1, §2

S. epidermis^MR = assay: MIC by broth microdilution (aerobic pathogens), test strain 6; type: cell-based, Methicillin resistant Staphylococcus epidermidis; settings: Staphylococcus epidermidis; test strain 6, S. epidermis^MR (methicillin resistant); read-out: MIC
Protocol: as §1, §2

E. faecalis = assay: MIC by broth microdilution (aerobic pathogens), test strain 7; type: cell-based; settings: Enterococcus faecalis; test strain 7, E. faecalis; read-out: MIC
Protocol: as §1, §2

E. faecalis^VanA = assay: MIC by broth microdilution (aerobic pathogens), test strain 8; type: cell-based, Vancomycin resistant Enterococcus faecalis; settings: Enterococcus faecalis; test strain 8, E. faecalis^VanA (vancomycin resistant); read-out: MIC
Protocol: as §1, §2

E. faecalis^LinR = assay: MIC by broth microdilution (aerobic pathogens), test strain 9; type: cell-based, Linezolid resistant Enterococcus faecalis; settings: Enterococcus faecalis; test strain 9, E. faecalis^LinR (linezolid resistant); read-out: MIC
Protocol: as §1, §2

E. faecium = assay: MIC by broth microdilution (aerobic pathogens), test strain 10; type: cell-based; settings: Enterococcus faecium; test strain 10, E. faecium; read-out: MIC
Protocol: as §1, §2

E. faecium^VRE = assay: MIC by broth microdilution (aerobic pathogens), test strain 11; type: cell-based, Vancomycin resistant Enterococcus faecium; settings: Enterococcus faecium; test strain 11, E. faecium^VRE (vancomycin resistant); read-out: MIC
Protocol: as §1, §2

E. faecium^LinR = assay: MIC by broth microdilution (aerobic pathogens), test strain 12; type: cell-based, Linezolid resistant Enterococcus faecium; settings: Enterococcus faecium; test strain 12, E. faecium^LinR (linezolid resistant); read-out: MIC
Protocol: as §1, §2

SMILES	MIC (C. difficile 9689)	MIC (C. difficile 152)	MIC (C. difficile 159)	MIC (C. difficile 161)	MIC (C. difficile 173)	MIC (C. difficile 174)	MIC (C. difficile 181)	MIC (S. aureus^MS [1])	MIC (S. aureus^MS [2])	MIC (S. aureus^MR)	MIC (S. aureus^VR)	MIC (S. epidermis)	MIC (S. epidermis^MR)	MIC (E. faecalis)	MIC (E. faecalis^VanA)	MIC (E. faecalis^LinR)	MIC (E. faecium)	MIC (E. faecium^VRE)	MIC (E. faecium^LinR)
C/C=C(\NC(=O)c1csc(-c2csc(-c3ccc4c(n3)-c3csc(n3)[C@H]([C@@H](C)O)NC(=O)c3csc(n3)[C@H](C(C)C)NC(=O)c3csc(n3)/C(=C/C)NC(=O)[C@H]([C@@H](C)O)NC(=O)c3csc-4n3)n2)n1)C(=O)NCCn1ccnc1[N+](=O)[O-] [Compound 43]	0.5 µg/mL (≈ 0.408 µM)	0.5 µg/mL (≈ 0.408 µM)	0.5 µg/mL (≈ 0.408 µM)	0.5 µg/mL (≈ 0.408 µM)	1 µg/mL (≈ 0.816 µM)	0.5 µg/mL (≈ 0.408 µM)	0.5 µg/mL (≈ 0.408 µM)												
C/C=C1\NC(=O)[C@H]([C@@H](C)O)NC(=O)c2csc(n2)-c2ccc(-c3nc(-c4nc(C(=O)NC5(C(=O)NCCn6cc([N+](=O)[O-])nc6C)CC5)cs4)cs3)nc2-c2csc(n2)[C@H]([C@@H](C)O)NC(=O)c2csc(n2)[C@H](C(C)C)NC(=O)c2csc1n2 [Compound 45]	0.5 µg/mL (≈ 0.403 µM)	0.5 µg/mL (≈ 0.403 µM)	0.5 µg/mL (≈ 0.403 µM)	0.5 µg/mL (≈ 0.403 µM)	1 µg/mL (≈ 0.807 µM)	0.5 µg/mL (≈ 0.403 µM)	1 µg/mL (≈ 0.807 µM)												

Next, values leading:

MIC (C. difficile 9689)	MIC (C. difficile 152)	MIC (C. difficile 159)	MIC (C. difficile 161)	MIC (C. difficile 173)	MIC (C. difficile 174)	MIC (C. difficile 181)	MIC (S. aureus^MS [1])	MIC (S. aureus^MS [2])	MIC (S. aureus^MR)	MIC (S. aureus^VR)	MIC (S. epidermis)	MIC (S. epidermis^MR)	MIC (E. faecalis)	MIC (E. faecalis^VanA)	MIC (E. faecalis^LinR)	MIC (E. faecium)	MIC (E. faecium^VRE)	MIC (E. faecium^LinR)	SMILES
							0.5 µg/mL (≈ 0.412 µM)	0.5 µg/mL (≈ 0.412 µM)	1 µg/mL (≈ 0.825 µM)	0.5 µg/mL (≈ 0.412 µM)	0.25 µg/mL (≈ 0.206 µM)	0.25 µg/mL (≈ 0.206 µM)	0.5 µg/mL (≈ 0.412 µM)	0.5 µg/mL (≈ 0.412 µM)	0.25 µg/mL (≈ 0.206 µM)	0.25 µg/mL (≈ 0.206 µM)	0.5 µg/mL (≈ 0.412 µM)	0.5 µg/mL (≈ 0.412 µM)	C/C=C(\NC(=O)c1csc(-c2csc(-c3ccc4c(n3)-c3csc(n3)[C@H]([C@@H](C)O)NC(=O)c3csc(n3)[C@H](C(C)C)NC(=O)c3csc(n3)/C(=C/C)NC(=O)[C@H]([C@@H](C)O)NC(=O)c3csc-4n3)n2)n1)C(=O)NCCN1CCN(C)CC1 [Compound 46]
							0.5 µg/mL (≈ 0.403 µM)	0.5 µg/mL (≈ 0.403 µM)	1 µg/mL (≈ 0.806 µM)	1 µg/mL (≈ 0.806 µM)	0.5 µg/mL (≈ 0.403 µM)	0.5 µg/mL (≈ 0.403 µM)	0.5 µg/mL (≈ 0.403 µM)	0.5 µg/mL (≈ 0.403 µM)	1 µg/mL (≈ 0.806 µM)	0.5 µg/mL (≈ 0.403 µM)	1 µg/mL (≈ 0.806 µM)	1 µg/mL (≈ 0.806 µM)	C/C=C(\NC(=O)c1csc(-c2csc(-c3ccc4c(n3)-c3csc(n3)[C@H]([C@@H](C)O)NC(=O)c3csc(n3)[C@H](C(C)C)NC(=O)c3csc(n3)/C(=C/C)NC(=O)[C@H]([C@@H](C)O)NC(=O)c3csc-4n3)n2)n1)C(=O)NCCN1CCN(C(C)C)CC1 [Compound 47]
							0.5 µg/mL (≈ 0.412 µM)	0.5 µg/mL (≈ 0.412 µM)	1 µg/mL (≈ 0.824 µM)	1 µg/mL (≈ 0.824 µM)	0.5 µg/mL (≈ 0.412 µM)	0.5 µg/mL (≈ 0.412 µM)	0.5 µg/mL (≈ 0.412 µM)	0.5 µg/mL (≈ 0.412 µM)	1 µg/mL (≈ 0.824 µM)	0.5 µg/mL (≈ 0.412 µM)	1 µg/mL (≈ 0.824 µM)	1 µg/mL (≈ 0.824 µM)	C/C=C(\NC(=O)c1csc(-c2csc(-c3ccc4c(n3)-c3csc(n3)[C@H]([C@@H](C)O)NC(=O)c3csc(n3)[C@H](C(C)C)NC(=O)c3csc(n3)/C(=C/C)NC(=O)[C@H]([C@@H](C)O)NC(=O)c3csc-4n3)n2)n1)C(=O)NCCCN1CCOCC1 [Compound 48]
							2 µg/mL (≈ 5.93 µM)	1 µg/mL (≈ 2.96 µM)	4 µg/mL (≈ 11.9 µM)	8 µg/mL (≈ 23.7 µM)	1 µg/mL (≈ 2.96 µM)	1 µg/mL (≈ 2.96 µM)	2 µg/mL (≈ 5.93 µM)	2 µg/mL (≈ 5.93 µM)	64 µg/mL (≈ 190 µM)	4 µg/mL (≈ 11.9 µM)	2 µg/mL (≈ 5.93 µM)	32 µg/mL (≈ 94.9 µM)	CC(=O)NC[C@H]1CN(c2ccc(N3CCOCC3)c(F)c2)C(=O)O1 [Lin, Linezolid, reference compound]
